Measurements published in ChEMBL document CHEMBL3885881, “DrugMatrix”.

Organism: Rattus norvegicus
Experiment: DrugMatrix - Regimen: Daily Repeat
Format: toxicity, organism-based, Sprague-Dawley
Design: regimen Daily Repeat, gender Male, age 6-8 weeks
Settings: in vivo, po, route oral GAVAGE, […]; for ABSOLUTE BASOPHIL / ABSOLUTE EOSINOPHIL / ABSOLUTE LYMPHOCYTE / ABSOLUTE MONOCYTE / ABSOLUTE SEGMENTED NEUTROPHIL / BASOPHIL / EOSINOPHIL / ERYTHROCYTE COUNT / HEMATOCRIT / HEMOGLOBIN / LEUKOCYTE COUNT / LYMPHOCYTE / MEAN CORPUSCULAR HEMOGLOBIN / MEAN CORPUSCULAR HEMOGLOBIN CONCENTRATION / MEAN CORPUSCULAR VOLUME / MONOCYTE / NEUTROPHIL / NUCLEATED RED BLOOD CELLS / PLATELET COUNT: tissue Blood; for ALANINE AMINOTRANSFERASE / ALBUMIN / ALKALINE PHOSPHATASE / ASPARTATE AMINOTRANSFERASE / BLOOD UREA NITROGEN / CARBON DIOXIDE / CHLORIDE / CHOLESTEROL / CREATINE PHOSPHOKINASE / CREATININE / GLUCOSE / LACTATE DEHYDROGENASE / LIPASE / PHOSPHORUS / POTASSIUM / SODIUM / TOTAL BILIRUBIN / TOTAL PROTEIN / URIC ACID: tissue Plasma
[1] = 48.8 mg/kg, 72 h, dose level Low, time 3 day
[2] = 48.8 mg/kg, 120 h, dose level Low, time 5 day
[3] = 488 mg/kg, 72 h, dose level High, time 3 day
[4] = 488 mg/kg, 120 h, dose level High, time 5 day

## C=CCc1ccc2c(c1)OCO2 [SAFROLE]
[1]
  ABSOLUTE BASOPHIL: 0 CELLS/uL
  ABSOLUTE EOSINOPHIL: 0 CELLS/uL
  ABSOLUTE LYMPHOCYTE: 11419.67 CELLS/uL
  ABSOLUTE MONOCYTE: 222 CELLS/uL
  ABSOLUTE SEGMENTED NEUTROPHIL: 1191.67 CELLS/uL
  BASOPHIL: 0%
  EOSINOPHIL: 0%
  ERYTHROCYTE COUNT: 5.33 x10E6/uL
  HEMATOCRIT: 33.63%
  HEMOGLOBIN: 13.47 G/DL
  LEUKOCYTE COUNT: 12.83 x10E3/uL
  LYMPHOCYTE: 89%
  MEAN CORPUSCULAR HEMOGLOBIN: 25.3 pg
  MEAN CORPUSCULAR HEMOGLOBIN CONCENTRATION: 40.03 G/DL
  MEAN CORPUSCULAR VOLUME: 63.03 fL
  MONOCYTE: 1.67%
  NEUTROPHIL: 9.33%
  NUCLEATED RED BLOOD CELLS: 0 /100WBC
  PLATELET COUNT: 1123 x10E3/uL
  ALANINE AMINOTRANSFERASE: 71.67 u/L
  ALBUMIN: 4 G/DL
  ALKALINE PHOSPHATASE: 447.67 u/L
  ASPARTATE AMINOTRANSFERASE: 90.67 u/L
  BLOOD UREA NITROGEN: 13.33 mg/dL
  CARBON DIOXIDE: 26 mmol/L
  CHLORIDE: 101.67 MEQ/L
  CHOLESTEROL: 78.67 mg/dL
  CREATINE PHOSPHOKINASE: 266.33 u/L
  CREATININE: 0.21 mg/dL
  GLUCOSE: 149.33 mg/dL
  LACTATE DEHYDROGENASE: 158.33 u/L
  LIPASE: 11.67 u/L
  PHOSPHORUS: 11.73 mg/dL
  POTASSIUM: 6.6 MEQ/L
  SODIUM: 143.53 MEQ/L
  TOTAL BILIRUBIN: 0.23 mg/dL
  TOTAL PROTEIN: 5.57 G/DL
  URIC ACID: 1.4 mg/dL
[2]
  ABSOLUTE BASOPHIL: 0 CELLS/uL
  ABSOLUTE EOSINOPHIL: 30.67 CELLS/uL
  ABSOLUTE LYMPHOCYTE: 9371 CELLS/uL
  ABSOLUTE MONOCYTE: 61.33 CELLS/uL
  ABSOLUTE SEGMENTED NEUTROPHIL: 1037 CELLS/uL
  BASOPHIL: 0%
  EOSINOPHIL: 0.33%
  ERYTHROCYTE COUNT: 5.63 x10E6/uL
  HEMATOCRIT: 35.6%
  HEMOGLOBIN: 14.13 G/DL
  LEUKOCYTE COUNT: 10.5 x10E3/uL
  LYMPHOCYTE: 89%
  MEAN CORPUSCULAR HEMOGLOBIN: 25.07 pg
  MEAN CORPUSCULAR HEMOGLOBIN CONCENTRATION: 39.67 G/DL
  MEAN CORPUSCULAR VOLUME: 63.27 fL
  MONOCYTE: 0.67%
  NEUTROPHIL: 10%
  NUCLEATED RED BLOOD CELLS: 1 /100WBC
  PLATELET COUNT: 1163.33 x10E3/uL
  ALANINE AMINOTRANSFERASE: 65 u/L
  ALBUMIN: 4.07 G/DL
  ALKALINE PHOSPHATASE: 334.67 u/L
  ASPARTATE AMINOTRANSFERASE: 88.67 u/L
  BLOOD UREA NITROGEN: 12 mg/dL
  CARBON DIOXIDE: 31.33 mmol/L
  CHLORIDE: 102 MEQ/L
  CHOLESTEROL: 59.67 mg/dL
  CREATINE PHOSPHOKINASE: 260.67 u/L
  CREATININE: 0.22 mg/dL
  GLUCOSE: 164.33 mg/dL
  LACTATE DEHYDROGENASE: 263.33 u/L
  LIPASE: 11.67 u/L
  PHOSPHORUS: 10.97 mg/dL
  POTASSIUM: 6.08 MEQ/L
  SODIUM: 144.37 MEQ/L
  TOTAL BILIRUBIN: 0.17 mg/dL
  TOTAL PROTEIN: 5.7 G/DL
  URIC ACID: 1.8 mg/dL
[3]
  ABSOLUTE BASOPHIL: 0 CELLS/uL
  ABSOLUTE EOSINOPHIL: 78 CELLS/uL
  ABSOLUTE LYMPHOCYTE: 16011.33 CELLS/uL
  ABSOLUTE MONOCYTE: 75.33 CELLS/uL
  ABSOLUTE SEGMENTED NEUTROPHIL: 1335.33 CELLS/uL
  BASOPHIL: 0%
  EOSINOPHIL: 0.33%
  ERYTHROCYTE COUNT: 6.08 x10E6/uL
  HEMATOCRIT: 37.6%
  HEMOGLOBIN: 15.17 G/DL
  LEUKOCYTE COUNT: 17.5 x10E3/uL
  LYMPHOCYTE: 90.67%
  MEAN CORPUSCULAR HEMOGLOBIN: 24.93 pg
  MEAN CORPUSCULAR HEMOGLOBIN CONCENTRATION: 40.33 G/DL
  MEAN CORPUSCULAR VOLUME: 61.83 fL
  MONOCYTE: 0.67%
  NEUTROPHIL: 8.33%
  NUCLEATED RED BLOOD CELLS: 0 /100WBC
  PLATELET COUNT: 1291.67 x10E3/uL
  ALANINE AMINOTRANSFERASE: 88.33 u/L
  ALBUMIN: 3.93 G/DL
  ALKALINE PHOSPHATASE: 421 u/L
  ASPARTATE AMINOTRANSFERASE: 112.67 u/L
  BLOOD UREA NITROGEN: 8.33 mg/dL
  CARBON DIOXIDE: 23.33 mmol/L
  CHLORIDE: 105.67 MEQ/L
  CHOLESTEROL: 87.33 mg/dL
  CREATINE PHOSPHOKINASE: 340.33 u/L
  CREATININE: 0.13 mg/dL
  GLUCOSE: 142 mg/dL
  LACTATE DEHYDROGENASE: 539.33 u/L
  LIPASE: 12 u/L
  PHOSPHORUS: 13.57 mg/dL
  POTASSIUM: 6.52 MEQ/L
  SODIUM: 146.57 MEQ/L
  TOTAL BILIRUBIN: 0.2 mg/dL
  TOTAL PROTEIN: 5.33 G/DL
  URIC ACID: 2.37 mg/dL
[4]
  ABSOLUTE BASOPHIL: 0 CELLS/uL
  ABSOLUTE EOSINOPHIL: 0 CELLS/uL
  ABSOLUTE LYMPHOCYTE: 12133.67 CELLS/uL
  ABSOLUTE MONOCYTE: 150 CELLS/uL
  ABSOLUTE SEGMENTED NEUTROPHIL: 1216.33 CELLS/uL
  BASOPHIL: 0%
  EOSINOPHIL: 0%
  ERYTHROCYTE COUNT: 6.25 x10E6/uL
  HEMATOCRIT: 37.83%
  HEMOGLOBIN: 14.97 G/DL
  LEUKOCYTE COUNT: 13.5 x10E3/uL
  LYMPHOCYTE: 89.33%
  MEAN CORPUSCULAR HEMOGLOBIN: 23.97 pg
  MEAN CORPUSCULAR HEMOGLOBIN CONCENTRATION: 39.53 G/DL
  MEAN CORPUSCULAR VOLUME: 60.6 fL
  MONOCYTE: 1%
  NEUTROPHIL: 9.67%
  NUCLEATED RED BLOOD CELLS: 0 /100WBC
  PLATELET COUNT: 1251.67 x10E3/uL
  ALANINE AMINOTRANSFERASE: 106.33 u/L
  ALBUMIN: 3.87 G/DL
  ALKALINE PHOSPHATASE: 337.67 u/L
  ASPARTATE AMINOTRANSFERASE: 130.67 u/L
  BLOOD UREA NITROGEN: 10.33 mg/dL
  CARBON DIOXIDE: 24 mmol/L
  CHLORIDE: 102.33 MEQ/L
  CHOLESTEROL: 116.33 mg/dL
  CREATINE PHOSPHOKINASE: 612.33 u/L
  CREATININE: 0.19 mg/dL
  GLUCOSE: 123.33 mg/dL
  LACTATE DEHYDROGENASE: 662.67 u/L
  LIPASE: 12.67 u/L
  PHOSPHORUS: 11.8 mg/dL
  POTASSIUM: 5.41 MEQ/L
  SODIUM: 142.07 MEQ/L
  TOTAL BILIRUBIN: 0.17 mg/dL
  TOTAL PROTEIN: 5.6 G/DL
  URIC ACID: 1.37 mg/dL
